Laboratory results as given in ChEMBL document CHEMBL1145561, “Pyrrolo[1,2-b]pyridazin-2-ones as potent inhibitors of HCV NS5B polymerase” (Bioorg Med Chem Lett, 2008).
pEC50, pIC50: −log10 of the molar value.

Experiments:
[1] = system: Hepatitis C virus; test: Inhibition of HCV 1b NS5B RNA polymerase; design: species or system Hepatitis C virus subtype 1b
[2] = system: Cynomolgus monkey; test: AUC (infinity) in cynomolgus monkey at 1 mg/kg, iv; format: ADME, organism-based, Macaca fascicularis, Plasma; design: time infinity, dose 1 mg/kg, route intravenous; conditions: in vivo
[3] = Clearance in cynomolgus monkey at 1 mg/kg, iv; format: ADME, organism-based, Macaca fascicularis; design: dose 1 mg/kg, route intravenous; conditions: in vivo
[4] = Metabolic stability in cynomolgus monkey liver microsomes assessed as half life at 1 uM; format: ADME, Macaca fascicularis, Microsome
[5] = system: Hepatitis C virus; test: Antiviral activity against HCV 1b in human Huh7/C24 cells after 72 hrs by replicon cell assay; format: functional, organism-based, Hepacivirus hominis; conditions: genotype 1b, Huh-7, 72 h
[6] = Oral bioavailability in cynomolgus monkey at 1 mg/kg; format: ADME, organism-based, Macaca fascicularis; conditions: in vivo
[7] = Metabolic stability in cynomolgus monkey liver microsomes assessed as remains after 60 mins at 1 uM; format: ADME, Macaca fascicularis, Microsome; conditions: read-out: Stability
[8] = Cytotoxicity against human Huh7/C24 cells after 72 hrs; format: cell-based, Huh-7
[9] = (§1) Metabolic stability in human liver microsomes assessed as half life at 5 uM; format: ADME, Microsome; conditions: liver microsomes
[10] = system: Cynomolgus monkey; test: AUC (infinity) in cynomolgus monkey at 1 mg/kg, po; format: ADME, organism-based, Macaca fascicularis, Plasma; design: time infinity, dose 1 mg/kg, route oral; conditions: in vivo
[11] = Apparent permeability from apical to basolateral side in human Caco-2 cells at 10 uM; format: ADME, cell-based
[12] = Solubility at pH 7.5; format: physicochemical; conditions: buffer
[13] = Metabolic stability in human liver microsomes assessed as remains after 60 mins at 5 uM; format: ADME, Microsome; conditions: read-out: Stability
[14] = system: Liver microsomes; test: as §1; format: ADME, Microsome; conditions: microsomes, 5 µM

Structure (SMILES) | pIC50 [1] | AUC [2] [ng·h/mL] | clearance [3] [mL/min/kg] | half-life at 1 µM [4] [min] | pEC50 [5] | bioavailability [6] [%] | remaining at 1 h, 1 µM [7] [%] | half-life at 5 µM [9] [min] | AUC [10] [ng·h/mL] | Papp A→B at 10 µM [11] [×10⁻⁶ cm/s] | solubility [12] [µM] | remaining at 1 h, 5 µM [13] [%] | t1/2 [14] [min] | CC50 at 72 h [8] [µM]
CC(C)CCn1c(=O)c(C2=NS(=O)(=O)c3cc(NS(C)(=O)=O)ccc3N2)c(O)c2cc(C#N)cn21 | 6.49 |  |  |  |  |  |  |  |  |  |  |  |  | 
CC(C)CCn1c(=O)c(C2=NS(=O)(=O)c3cc(NS(=O)(=O)C4CC4)ccc3N2)c(O)c2cccn21 | 6.80 | 3770 | 5 | > 60 | 7.02 | 4 | 87 | 59 | 141 | 0.8 | > 100 |  |  | > 33
CC(C)CCn1c(=O)c(C2=NS(=O)(=O)c3cc(NS(C)(=O)=O)ccc3N2)c(O)c2cc(F)cn21 | 7.57 |  |  |  | 7.72 |  |  | > 60 |  |  |  | 78 |  | > 1
CC(C)CCn1c(=O)c(C2=NS(=O)(=O)c3cc(N(C)S(C)(=O)=O)ccc3N2)c(O)c2cccn21 | 6.96 | 1060 | 16 | 60 | 6.72 | 7 |  | > 60 | 79 | 4.3 | > 100 | 55 |  | > 33
CC(C)(C)CCn1c(=O)c(C2=NS(=O)(=O)c3cc(NS(C)(=O)=O)ccc3N2)c(O)c2cccn21 | > 8.00 | 1210 | 14 | 14 | 8.30 | 2 |  | 10 | 25 | 0.7 | > 100 |  |  | > 1
CC(C)NCC(O)COc1cccc2ccccc12 (stereo unspecified) [PROPRANOLOL] |  |  |  |  |  |  |  |  |  | 10 |  |  |  | 
CN(c1ccc2c(c1)S(=O)(=O)N=C(c1c(O)c3cccn3n(CCC(C)(C)C)c1=O)N2)S(C)(=O)=O | 7.22 |  |  |  | 6.92 |  |  | 49 |  |  |  |  |  | > 33
CC(C)CCn1nc(-c2cccs2)c(O)c(C2=Nc3ccc(NS(C)(=O)=O)cc3S(=O)(=O)N2)c1=O |  | 1330 |  |  |  | 2 |  |  | 30 | 0.03 | > 100 |  |  | 
CC(C)CCn1c(=O)c(C2=Nc3ccc(NS(C)(=O)=O)cc3S(=O)(=O)N2)c(O)c2cccn21 | > 8.00 |  |  | > 60 | 8.07 |  | 66 | 42 | 83 | 0.2 | > 100 |  |  | > 1
COc1ccc2c(c1)S(=O)(=O)N=C(c1c(O)c3cccn3n(CCC(C)C)c1=O)N2 | 5.66 |  |  |  | 4.77 |  |  |  |  |  |  |  |  | > 100

More lines, main results first:

pIC50 [1] | AUC [2] [ng·h/mL] | clearance [3] [mL/min/kg] | half-life at 1 µM [4] [min] | pEC50 [5] | bioavailability [6] [%] | remaining at 1 h, 1 µM [7] [%] | half-life at 5 µM [9] [min] | AUC [10] [ng·h/mL] | Papp A→B at 10 µM [11] [×10⁻⁶ cm/s] | solubility [12] [µM] | remaining at 1 h, 5 µM [13] [%] | t1/2 [14] [min] | Structure (SMILES) | CC50 at 72 h [8] [µM]
6.01 | 20500 | 49 | 11 | 5.28 | 63 |  | 14 | 12900 | 11 | > 200 |  |  | CC(C)CCn1c(=O)c(C2=NS(=O)(=O)c3ccccc3N2)c(O)c2cccn21 | > 100
6.07 |  |  |  |  |  |  |  |  |  |  |  | 45 | O=c1c(C2=NS(=O)(=O)c3ccccc3N2)c(O)c2cccn2n1Cc1ccc(F)cc1 | 
> 8.00 | 539 | 31 | > 60 |  | 1 | 90 | > 60 | 6 | 0.1 | > 100 | 86 |  | CS(=O)(=O)Nc1ccc2c(c1)S(=O)(=O)N=C(c1c(O)c3cccn3n(Cc3ccc(F)cc3)c1=O)N2 | > 1
6.89 |  |  |  | 6.42 |  |  | > 60 |  |  |  | 100 |  | O=c1c(C2=NS(=O)(=O)c3cc(C4CCCS4(=O)=O)ccc3N2)c(O)c2cccn2n1Cc1ccc(F)cc1 (racemic) | > 33
6.89 | 1780 | 9 | > 60 | 6.48 | 6 | 90 | > 60 | 107 | 0.9 | > 60 | 90 |  | CN(c1ccc2c(c1)S(=O)(=O)N=C(c1c(O)c3cccn3n(Cc3ccc(F)cc3)c1=O)N2)S(C)(=O)=O | > 10
7.60 |  |  |  | 7.66 |  |  | > 60 |  |  |  | 102 |  | CS(=O)(=O)Nc1ccc2c(c1)S(=O)(=O)N=C(c1c(O)c3cccn3n(Cc3ccc(F)c(Cl)c3)c1=O)N2 | > 1
